Our source for the Ki values is patent publication US8716475B2, “2-aminopyrimidine modulators of the histamine H4 receptor” (Janssen Pharmaceutica NV, priority 2007, dated 2014).

As usually defined, the Ki is the dissociation constant of the complex between target and ligand, obtained from inhibition or displacement.

The target in this assay is T1, human H4 receptor (Homo sapiens, UniProt Q9H3N8).
T1 construct: expressed in transfected cells
T1 sequence (Q9H3N8 whole entry): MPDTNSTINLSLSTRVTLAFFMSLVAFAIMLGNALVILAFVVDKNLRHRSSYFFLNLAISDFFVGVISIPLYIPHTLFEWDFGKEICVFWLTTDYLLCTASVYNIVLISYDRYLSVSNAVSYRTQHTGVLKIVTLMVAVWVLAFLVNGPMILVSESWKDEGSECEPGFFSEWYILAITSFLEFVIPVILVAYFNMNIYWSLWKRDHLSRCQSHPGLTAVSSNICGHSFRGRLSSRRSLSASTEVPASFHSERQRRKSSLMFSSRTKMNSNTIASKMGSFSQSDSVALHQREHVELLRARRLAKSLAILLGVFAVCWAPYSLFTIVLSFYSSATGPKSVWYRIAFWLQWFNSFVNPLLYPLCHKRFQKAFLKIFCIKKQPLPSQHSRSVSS
As to the kind of experiment: Binding Assay on Recombinant Human Histamine H4 Receptor. Conditions: Table 2; [3H] histamine competition binding, membranes of SK-N-MC cells transfected with human H4 receptor; average of results. The gist of the method: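 Radioligand binding used membranes from SK-N-MC cells stably or transiently expressing human H4, prepared in 50 mM Tris/5 mM EDTA. Nonspecific binding was defined with 100 μM histamine. Bound radioactivity was counted after filtration on PEI-treated GF/C filters, and ">" values are the highest concentration tested.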
In the case of `CN[C@@H]1CCN(c2cc(CCc3ccccc3)nc(N)n2)C1` [Example 180, (R)-4-(3-Methylamino-pyrrolidin-1-yl)-6-phenethyl-pyrimidin-2-ylamine], the inhibitory constant (Ki) was 8 nM.
The figure for `CN1CCN(c2cc(CCC(F)(F)F)nc(N)n2)CC1` [Example 181, 4-(4-Methyl-piperazin-1-yl)-6-(3,3,3-trifluoro-propyl)-pyrimidin-2-ylamine] is 8 nM; for `Nc1nc(CCC(F)(F)F)cc(N2CCNCC2)n1` [Example 182, 4-piperazin-1-yl-6-(3,3,3-trifluoro-propyl)-pyrimidin-2-ylamine] it is 20 nM.
With `CN[C@@H]1CCN(c2cc(CCC(F)(F)F)nc(N)n2)C1` [Example 183, (R)-4-(3-Methylamino-pyrrolidin-1-yl)-6-(3,3,3-trifluoro-propyl)-pyrimidin-2-ylamine] the figure was 16 nM.
With `Nc1nc(CCC(F)(F)F)cc(N2CC[C@@H](N)C2)n1` [Example 184, (R)-4-(3-Amino-pyrrolidin-1-yl)-6-(3,3,3-trifluoro-propyl)-pyrimidin-2-ylamine] the figure was 13 nM; with `COc1c(C2CCCC2)nc(N)nc1N1CCN(C)CC1` [Example 185, 4-Cyclopentyl-5-methoxy-6-(4-methyl-piperazin-1-yl)-pyrimidin-2-ylamine], 300 nM; with `COc1c(C2CCCC2)nc(N)nc1N1CCNCC1` [Example 186, 4-Cyclopentyl-5-methoxy-6-piperazin-1-yl-pyrimidin-2-ylamine], 213 nM.
As for `CN[C@@H]1CCN(c2nc(N)nc(C3CCCC3)c2OC)C1` [Example 187, (R)-4-Cyclopentyl-5-methoxy-6-(3-methylamino-pyrrolidin-1-yl)-pyrimidin-2-ylamine], the Ki worked out at 10 nM.
With `COc1c(C2CCCC2)nc(N)nc1N1C[C@H]2CCCN[C@H]2C1` [Example 188, (R,R)-4-Cyclopentyl-5-methoxy-6-(octahydro-pyrrolo[3,4-b]pyridin-6-yl)-pyrimidin-2-ylamine] the figure was 18 nM.
As for `CN(CCN)c1cc(C2CCOC2)nc(N)n1` (stereo not shown) [Example 189, N^4-(2-Amino-ethyl)-N^4-methyl-6-(tetrahydro-furan-3-yl)-pyrimidine-2,4-diamine], the Ki worked out at 6 nM.
As to `Nc1nc(C2CCOC2)cc(N2CC3CCCNC3C2)n1` (stereo not drawn) [Example 190, 4-(cis-Octahydro-pyrrolo[3,4-b]pyridin-6-yl)-6-(tetrahydro-furan-3-yl)-pyrimidin-2-ylamine], the Ki is 11 nM.
For `CN[C@@H]1CCN(c2cc(C3CCOC3)nc(N)n2)C1` (stereo partly drawn) [Example 191, (R)-4-(3-Methylamino-pyrrolidin-1-yl)-6-(tetrahydro-furan-3-yl)-pyrimidin-2-ylamine], the Ki was 12 nM.
On to `Nc1nc(C2CCOC2)cc(N2CCCNCC2)n1` (stereo not shown) [Example 192, 4-[1,4]-Diazepan-1-yl-6-(tetrahydro-furan-3-yl)-pyrimidin-2-ylamine], for which the Ki amounted to 17 nM.
The figure for `NCCNc1cc(C2CCOC2)nc(N)n1` (stereo not shown) [Example 195, N^4-(2-Amino-ethyl)-6-(tetrahydro-furan-3-yl)-pyrimidine-2,4-diamine] is 59 nM.
Take `NCCCNc1cc(C2CCOC2)nc(N)n1` (stereo not shown) [Example 196, N^4-(3-Amino-propyl)-6-(tetrahydro-furan-3-yl)-pyrimidine-2,4-diamine]: the inhibitory constant (Ki) came to 203 nM.
Turning to `CNCCN(C)c1cc(C2CCOC2)nc(N)n1` (stereo not shown) [Example 197, N^4-Methyl-N^4-(2-methylamino-ethyl)-6-(tetrahydro-furan-3-yl)-pyrimidine-2,4-diamine], the Ki was found to be 204 nM.
With `CNCCNc1cc(C2CCOC2)nc(N)n1` (stereo not shown) [Example 198, N^4-(2-Methylamino-ethyl)-6-(tetrahydro-furan-3-yl)-pyrimidine-2,4-diamine] the figure was 2450 nM; with `Cc1nc(N)nc(N2CCN(C)CC2)c1F` [Example 199, 5-Fluoro-4-methyl-6-(4-methyl-piperazin-1-yl)-pyrimidin-2-ylamine], 69 nM.
Consider `Cc1nc(N)nc(N2CC3CCCNC3C2)c1F` (stereo not shown) [Example 200, 5-Fluoro-4-methyl-6-(octahydro-pyrrolo[3,4-b]pyridin-6-yl)-pyrimidin-2-ylamine], for which the inhibition constant Ki amounted to 235 nM.
The figure for `Cc1nc(N)nc(N2CCNCC2)c1F` [Example 201, 5-Fluoro-4-methyl-6-piperazin-1-yl-pyrimidin-2-ylamine] is 391 nM.
The figure for `CN[C@@H]1CCN(c2nc(N)nc(C)c2F)C1` [Example 202, (R)-5-Fluoro-4-methyl-6-(3-methylamino-pyrrolidin-1-yl)-pyrimidin-2-ylamine] is 515 nM; for `Cc1nc(N)nc(N(C)CCN)c1F` [Example 203, N^4-(2-Amino-ethyl)-5-fluoro-6,N^4-dimethyl-pyrimidine-2,4-diamine] it is 4230 nM.
With `Nc1nc(Cc2ccncc2)cc(N2CCNCC2)n1` [Example 204, 4-piperazin-1-yl-6-pyridin-4-ylmethyl-pyrimidin-2-ylamine] the figure was 45 nM; with `CN[C@@H]1CCN(c2cc(Cc3ccncc3)nc(N)n2)C1` [Example 205, (R)-4-(3-Methylamino-pyrrolidin-1-yl)-6-pyridin-4-ylmethyl-pyrimidin-2-ylamine], 230 nM.
For `CN1CCN(c2cc(Cc3ccncc3)nc(N)n2)CC1` [Example 206, 4-(4-Methyl-piperazin-1-yl)-6-pyridin-4-ylmethyl-pyrimidin-2-ylamine], the inhibitory constant (Ki) is 81 nM.
The figure for `CN1CCN(c2cc(Cc3ccsc3)nc(N)n2)CC1` [Example 207, 4-(4-Methyl-piperazin-1-yl)-6-thiophen-3-ylmethyl-pyrimidin-2-ylamine] is 2 nM; for `CN[C@@H]1CCN(c2cc(Cc3ccsc3)nc(N)n2)C1` [Example 208, (R)-4-(3-Methylamino-pyrrolidin-1-yl)-6-thiophen-3-ylmethyl-pyrimidin-2-ylamine] it is 8 nM; for `Nc1nc(Cc2ccsc2)cc(N2CCNCC2)n1` [Example 209, 4-piperazin-1-yl-6-thiophen-3-ylmethyl-pyrimidin-2-ylamine] it is 2 nM.
Take `Nc1nc(Cc2ccsc2)cc(N2CC[C@@H](N)C2)n1` [Example 210, (R)-4-(3-Amino-pyrrolidin-1-yl)-6-thiophen-3-ylmethyl-pyrimidin-2-ylamine]: the inhibitory constant (Ki) amounted to 12 nM.
With `Nc1nc(Cc2ccsc2)cc(N2CC3CCCNC3C2)n1` (stereo not drawn) [Example 211, 4-(cis-Octahydro-pyrrolo[3,4-b]pyridin-6-yl)-6-thiophen-3-ylmethyl-pyrimidin-2-ylamine] the figure was 4 nM.
The figure for `NCCNc1cc(Cc2ccsc2)nc(N)n1` [Example 212, N^4-(2-Amino-ethyl)-6-thiophen-3-ylmethyl-pyrimidine-2,4-diamine] is 12 nM.
The figure for `CN1CCN(c2cc(Cc3cccs3)nc(N)n2)CC1` [Example 213, 4-(4-Methyl-piperazin-1-yl)-6-thiophen-2-ylmethyl-pyrimidin-2-ylamine] is 4 nM.
For `CN[C@@H]1CCN(c2cc(Cc3cccs3)nc(N)n2)C1` [Example 214, (R)-4-(3-Methylamino-pyrrolidin-1-yl)-6-thiophen-2-ylmethyl-pyrimidin-2-ylamine], the Ki turned out to be 19 nM.
Take `Nc1nc(Cc2cccs2)cc(N2CCNCC2)n1` [Example 215, 4-piperazin-1-yl-6-thiophen-2-ylmethyl-pyrimidin-2-ylamine]: the Ki is 6 nM.
